“Also recorded” adds a separate entry of the source.
How the values were obtained:
rats [1] = experiment: toxicant exposure of rats; modified proteins isolated from serum (immunoaffinity, 2D gel electrophoresis, LC/MS); type: in vivo; conditions: for modified proteins found in serum of treated animals, not found in the control group: rat serum, CCl4 0.1 and 1.0 mL/kg or ozone 0.8 and 2.0 ppm, specimens at 0-24 hours, anti-nitrotyrosine, chlorotyrosine, methionine sulfoxide resins, LC/MS
Protocol: Experimental groups consisted of three experimental and two control animals at each dose and specimens were collected at zero, one, two, four, eight, sixteen and twenty-four hours following ozone administration. In another experimental series, CCl4 was administered at a level of 0.1 and 1.0 mL/kg to rats to induce liver damage, and specimens were collected at time points as described above. […] Therefore, these high abundance proteins are preferably eliminated from serum samples prior to further processing.
In this experimental series, the specimens were purified by passing them over affinity resins containing antibodies against whole rat serum proteins and collecting the eluate. This purification methodology was effective in removing a significant amount of the high abundant serum proteins, which typically have a molecular weight in the range of 49-80 kiloDalton. […] Therefore, it was determined that concentration of the sample could be carried out very effectively by a process of molecular weight sieving which retained low molecular weight proteins (typically 50 kiloDalton and below) and excluded high molecular weight proteins. Such sieving was effectively accomplished utilizing a Superdex 75 column with a sample loading volume of 10% of the bed volume. Processes of this type have the advantage of being cheaper and faster than affirity resin based processes.
Once the concentration of high abundance serum proteins was decreased, the tissue proteins were purified from serum by immunoaffinity resins using antibodies to nitrotyrosine, chlorothyosine and methionine sulfoxide. […] Samples of interest were excised from the gel and those with sufficient concentration were analyzed by LC/MS.

rats [2] = conditions: in rats; cited from earlier work

## ClC(Cl)(Cl)Cl [CCl4, carbon tetrachloride]
Rats [1]
  modified proteins found in serum of treated animals, not found in the control group: three out of the seven peptides from the CCl4 group were associated with mitochondria; also recorded: peroxiredoxin
Rats [2]
  organ toxicity: known hepatotoxicant

## O=C1CCC(=O)N1c1cc(Cl)cc(Cl)c1 [NDPS, N-(3,5-dichlorophenyl) succinimide]
Rats [2]
  organ toxicity: toxic to the kidney

## O=[O+][O-] [ozone]
Rats [1]
  modified proteins found in serum of treated animals, not found in the control group: four proteins of interest were found
Rats [1]; rats breathing ozone at 0.8 and 2.0 ppm
  organ damage: Lung damage was produced
Rats [2]
  organ toxicity: toxic to the lungs

From patent US20070134731A1, “PROTEOMICS BASED METHOD FOR TOXICOLOGY TESTING” (priority 2002, published 2007)
